# Data reported in ChEMBL document CHEMBL1201862, “PubChem BioAssay data set” (2004).
# Active and inactive are the calls of the source.
# Key:
# cells [1] = type: functional, cell-based
# cells [2] = type: functional, cell-based; remark: listed apart in the source
# [3] = Shn3 3'UTR reporter inhibitors, dose response, cell-based, Clone20 osteoblasts, firefly luciferase, cherry-picked (AID 624132); type: functional;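 note: firefly luciferase luminescence from reporter carrying the Shn3 3'UTR in osteoblasts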
# [4] = HepG2 cell cytotoxicity, dose response, cytotoxicity control for Shn3 inhibitor project, CellTiter-Glo, cherry-picked (AID 624134); type: functional, cell-based
# [5] = control 3'UTR Renilla luciferase suppression, dose response, counter-screen for Shn3 inhibitor project, cell-based, Clone20-Shn3RL, cherry-picked (AID 624133); type: functional
# [6] = Luminescence Cell-Based Dose Confirmation HTS to Identify Activators of 5'UTR Stem-Loop Driven Alpha-Synuclein mRNA Translation in H4 Neuroglioblastoma Cells. [Related pubchem assays: 1829 (Project Summary), 1814 (Primary HTS)]; type: functional
# H4 = assay: Luminescence Cell-Based Dose Response HTS to Identify Activators of 5'UTR Stem-Loop Driven Prion Protein mRNA Translation in H4 Neuroglioblastoma Cells. [Related pubchem assays: 1829 (Project Summary), 1814 (Primary HTS)]; type: functional; conditions: Homo sapiens
# [7] = Luminescence Cell-Based Dose Response HTS to Identify Activators of Luciferase Translation or Activity in H4 […] Cells. [Related pubchem assays: 1829 (Project Summary), 1814 (Primary HTS)]; type: functional
# Genome polyprotein = Genome polyprotein (dengue virus type 2, UniProt P29990); assay: Dengue-2 NS5 methyltransferase inhibitors, primary screen, biochemical, confirmation dose response (AID 588689); type: functional
# Nonstructural protein 1 = Nonstructural protein 1 (Influenza A virus, UniProt Q194T2); type: functional, Influenza A virus (A/California/07/2009(H1N1))
# [8] = Luminescence Cell-Based Dose Retest to Confirm Inhibitors of Cancer Stem Cells. [Related pubchem assays (depositor defined):AID2717, AID2721]; type: functional; conditions: Homo sapiens
# [9] = microbe, parasite or virus in culture; type: functional; conditions: Mycobacterium tuberculosis
# Large T antigen = Large T antigen (Simian virus 40, UniProt P03070); type: functional, Betapolyomavirus macacae;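 note: Confirmatory-stage PubChem screen for compounds that inhibit SV40 T antigen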
# [10] = target: T1, Replicative DNA helicase DnaB (Mycobacterium tuberculosis, UniProt P9WMR3); assay: DnaB intein splicing inhibitors, dose response, biochemical, cell-free fluorescence (AID 449749); type: functional
# T1 sequence (P9WMR3 whole entry): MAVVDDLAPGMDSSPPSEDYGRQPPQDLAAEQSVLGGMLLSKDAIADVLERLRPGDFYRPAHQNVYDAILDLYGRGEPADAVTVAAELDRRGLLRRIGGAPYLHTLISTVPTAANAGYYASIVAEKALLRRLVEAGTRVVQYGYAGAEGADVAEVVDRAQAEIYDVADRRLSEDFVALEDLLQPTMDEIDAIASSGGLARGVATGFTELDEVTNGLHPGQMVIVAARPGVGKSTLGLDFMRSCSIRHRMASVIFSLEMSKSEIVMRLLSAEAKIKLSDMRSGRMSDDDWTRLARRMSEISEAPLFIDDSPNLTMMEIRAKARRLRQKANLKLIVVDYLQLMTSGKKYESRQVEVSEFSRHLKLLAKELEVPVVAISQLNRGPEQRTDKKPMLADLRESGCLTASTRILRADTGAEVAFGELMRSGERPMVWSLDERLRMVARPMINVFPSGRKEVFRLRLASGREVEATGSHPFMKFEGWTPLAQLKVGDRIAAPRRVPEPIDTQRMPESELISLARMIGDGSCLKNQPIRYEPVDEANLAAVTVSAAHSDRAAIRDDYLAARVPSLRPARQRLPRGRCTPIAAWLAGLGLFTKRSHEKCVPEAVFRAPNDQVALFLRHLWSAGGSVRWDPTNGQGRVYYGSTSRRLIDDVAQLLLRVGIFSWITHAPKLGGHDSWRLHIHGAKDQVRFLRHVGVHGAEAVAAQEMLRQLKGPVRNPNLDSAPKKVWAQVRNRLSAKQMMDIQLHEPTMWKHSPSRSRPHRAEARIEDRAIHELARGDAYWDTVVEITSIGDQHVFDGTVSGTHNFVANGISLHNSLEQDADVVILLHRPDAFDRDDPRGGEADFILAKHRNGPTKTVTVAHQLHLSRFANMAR
# Protein RecA = target: T2, Protein RecA (Mycobacterium tuberculosis, UniProt P9WHJ3); assay: Fluorescence Cell-Free Homogeneous Dose Retest to Identify Inhibitors of RecA-Intein Splicing Activity. [Related pubchem assays (depositor defined):AID2097, AID2223, AID489010, AID492950]; type: functional
# T2 sequence (P9WHJ3 whole entry): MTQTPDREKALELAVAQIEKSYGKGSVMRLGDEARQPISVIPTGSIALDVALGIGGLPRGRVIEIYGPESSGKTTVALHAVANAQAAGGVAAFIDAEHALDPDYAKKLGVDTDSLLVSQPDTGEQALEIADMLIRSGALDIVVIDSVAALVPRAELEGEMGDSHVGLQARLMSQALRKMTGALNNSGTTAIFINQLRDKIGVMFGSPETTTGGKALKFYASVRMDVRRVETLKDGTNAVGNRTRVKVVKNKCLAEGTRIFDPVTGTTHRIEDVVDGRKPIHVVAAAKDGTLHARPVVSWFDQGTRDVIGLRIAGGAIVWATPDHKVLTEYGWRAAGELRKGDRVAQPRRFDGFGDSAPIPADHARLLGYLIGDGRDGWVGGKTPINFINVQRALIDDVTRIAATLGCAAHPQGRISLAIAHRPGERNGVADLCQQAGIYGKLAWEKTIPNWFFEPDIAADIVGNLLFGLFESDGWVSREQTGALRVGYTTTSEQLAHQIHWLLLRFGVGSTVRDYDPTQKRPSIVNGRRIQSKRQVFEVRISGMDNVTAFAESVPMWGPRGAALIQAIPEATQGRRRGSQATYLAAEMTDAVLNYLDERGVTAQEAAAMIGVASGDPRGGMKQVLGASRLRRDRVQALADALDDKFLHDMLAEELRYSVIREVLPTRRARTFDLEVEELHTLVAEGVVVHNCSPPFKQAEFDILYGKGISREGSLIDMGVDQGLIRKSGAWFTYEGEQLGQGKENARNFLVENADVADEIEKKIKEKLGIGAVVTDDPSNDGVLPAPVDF
# [11] = target: T3, DNA repair protein RAD52 homolog (Homo sapiens, UniProt P43351); type: functional, biochemical
# T3 sequence (P43351 whole entry): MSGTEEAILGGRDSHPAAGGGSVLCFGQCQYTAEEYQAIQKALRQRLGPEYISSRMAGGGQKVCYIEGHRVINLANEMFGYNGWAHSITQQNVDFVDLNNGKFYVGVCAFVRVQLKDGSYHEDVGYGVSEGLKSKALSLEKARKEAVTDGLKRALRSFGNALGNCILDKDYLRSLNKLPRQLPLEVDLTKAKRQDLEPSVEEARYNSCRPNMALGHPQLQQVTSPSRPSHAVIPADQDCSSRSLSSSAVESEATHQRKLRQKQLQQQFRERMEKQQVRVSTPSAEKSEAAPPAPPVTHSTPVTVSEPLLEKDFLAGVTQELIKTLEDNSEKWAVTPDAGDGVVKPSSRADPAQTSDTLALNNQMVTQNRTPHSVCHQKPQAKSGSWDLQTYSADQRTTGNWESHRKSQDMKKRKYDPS
# Streptokinase A = target: T4, Streptokinase A (Streptococcus pyogenes serotype M1, UniProt P10520); assay: S. pyogenes streptokinase expression inhibitors, potency, dose response, plasminogen activation absorbance, OD405 (AID 1914); type: functional, Streptococcus pyogenes M1 GAS;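 note: secreted streptokinase activity via plasminogen activation per viability signal from cell pellet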
# T4 sequence (P10520 whole entry): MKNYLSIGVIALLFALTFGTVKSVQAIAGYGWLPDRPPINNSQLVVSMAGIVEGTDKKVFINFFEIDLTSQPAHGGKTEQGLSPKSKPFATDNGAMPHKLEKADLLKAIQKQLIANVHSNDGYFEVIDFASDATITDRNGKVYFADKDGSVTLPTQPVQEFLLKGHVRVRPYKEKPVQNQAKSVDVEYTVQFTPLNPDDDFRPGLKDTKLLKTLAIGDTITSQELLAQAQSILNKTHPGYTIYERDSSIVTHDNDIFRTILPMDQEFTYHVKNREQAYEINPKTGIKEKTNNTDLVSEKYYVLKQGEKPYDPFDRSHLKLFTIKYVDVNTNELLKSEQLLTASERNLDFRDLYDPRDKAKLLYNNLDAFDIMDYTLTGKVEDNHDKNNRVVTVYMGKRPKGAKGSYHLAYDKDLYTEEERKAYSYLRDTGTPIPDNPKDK
# Streptococcus = assay: Group A Streptococcus viability loss, dose response, counter-screen for streptokinase expression inhibitor project, luminescence, BacTiterGlo (AID 1915); type: functional, organism-based;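 note: potency for reduction of bacterial viability or growth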
# [12] = system: Streptococcus sp. 'group A'; assay: growth inhibition of control SK(-) GAS strain, dose response, counter-screen for streptokinase expression inhibitor project, luminescence, kanamycin, BacTiterGlo, confirmation (AID 1900); type: functional, organism-based
# [13] = target: Heat shock protein HSP 90-alpha (Homo sapiens, UniProt P07900); type: functional, organism-based
# Chain of Genome polyprotein (P29990 2492-3391 limits assumed): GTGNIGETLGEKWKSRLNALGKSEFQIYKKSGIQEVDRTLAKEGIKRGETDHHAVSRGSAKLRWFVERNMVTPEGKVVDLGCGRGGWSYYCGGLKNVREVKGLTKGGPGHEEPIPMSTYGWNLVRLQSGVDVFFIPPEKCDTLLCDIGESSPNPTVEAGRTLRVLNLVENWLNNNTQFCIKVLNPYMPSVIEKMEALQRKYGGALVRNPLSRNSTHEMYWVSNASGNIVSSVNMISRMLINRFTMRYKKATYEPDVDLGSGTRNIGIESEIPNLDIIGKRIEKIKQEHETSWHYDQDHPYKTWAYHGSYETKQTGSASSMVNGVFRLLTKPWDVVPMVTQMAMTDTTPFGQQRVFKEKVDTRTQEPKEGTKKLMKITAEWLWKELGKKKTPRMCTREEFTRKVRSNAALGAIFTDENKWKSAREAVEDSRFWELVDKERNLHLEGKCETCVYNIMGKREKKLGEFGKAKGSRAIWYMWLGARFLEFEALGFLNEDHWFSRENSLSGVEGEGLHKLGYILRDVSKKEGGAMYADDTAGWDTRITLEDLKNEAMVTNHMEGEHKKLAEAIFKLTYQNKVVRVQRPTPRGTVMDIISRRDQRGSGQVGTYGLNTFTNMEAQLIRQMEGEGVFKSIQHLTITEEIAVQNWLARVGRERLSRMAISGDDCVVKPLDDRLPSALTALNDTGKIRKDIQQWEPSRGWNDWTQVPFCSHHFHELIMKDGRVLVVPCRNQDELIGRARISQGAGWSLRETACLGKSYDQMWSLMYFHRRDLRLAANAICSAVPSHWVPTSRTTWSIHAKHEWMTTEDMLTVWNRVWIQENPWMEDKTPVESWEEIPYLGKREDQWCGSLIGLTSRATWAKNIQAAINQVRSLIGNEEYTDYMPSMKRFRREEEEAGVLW
# Chain of Nonstructural protein 1 (Q194T2 whole entry): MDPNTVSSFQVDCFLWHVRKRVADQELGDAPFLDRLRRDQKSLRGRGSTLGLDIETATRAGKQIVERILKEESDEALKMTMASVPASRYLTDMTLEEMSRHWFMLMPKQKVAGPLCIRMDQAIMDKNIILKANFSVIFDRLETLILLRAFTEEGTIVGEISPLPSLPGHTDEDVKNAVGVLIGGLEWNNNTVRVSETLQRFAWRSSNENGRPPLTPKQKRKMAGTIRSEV
# Chain of Large T antigen (P03070 whole entry): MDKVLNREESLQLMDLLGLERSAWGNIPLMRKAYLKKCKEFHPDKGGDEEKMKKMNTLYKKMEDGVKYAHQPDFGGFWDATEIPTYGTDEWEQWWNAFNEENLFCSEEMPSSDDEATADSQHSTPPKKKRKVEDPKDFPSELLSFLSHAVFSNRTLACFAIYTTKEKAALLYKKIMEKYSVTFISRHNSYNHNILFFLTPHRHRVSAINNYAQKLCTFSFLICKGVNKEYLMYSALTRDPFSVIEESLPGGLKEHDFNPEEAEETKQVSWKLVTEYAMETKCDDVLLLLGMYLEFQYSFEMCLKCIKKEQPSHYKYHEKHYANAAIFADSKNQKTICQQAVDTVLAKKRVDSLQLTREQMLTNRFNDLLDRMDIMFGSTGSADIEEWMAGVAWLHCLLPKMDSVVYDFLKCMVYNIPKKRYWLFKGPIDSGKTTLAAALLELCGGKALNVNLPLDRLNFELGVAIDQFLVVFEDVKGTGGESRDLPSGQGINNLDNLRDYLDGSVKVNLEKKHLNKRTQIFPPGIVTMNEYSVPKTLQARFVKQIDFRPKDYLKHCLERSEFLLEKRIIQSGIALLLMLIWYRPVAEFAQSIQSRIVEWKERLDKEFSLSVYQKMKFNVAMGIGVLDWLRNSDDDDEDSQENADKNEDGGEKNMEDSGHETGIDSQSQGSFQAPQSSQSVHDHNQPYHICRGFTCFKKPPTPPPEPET
smiles,measurement,setting,value
Cc1ccc(N2CC(=O)Nc3c(sc4nc(C)cc(C)c34)C2=O)cc1,EC50,cells [1],> 350 µM (not active)
same,EC50,cells [2],> 350 µM (not active)
O=C1CCCC(=O)C1=CNc1cccc(C(F)(F)F)c1,EC50,cells [1],> 350 µM (not active)
same,EC50,cells [2],> 350 µM (not active)
c1ccc2c(-c3n[nH]cc3CNCCCn3ncc4ccccc43)cccc2c1,AC50,[3],3.25 µM (active)
same,AC50,[4],56.7 µM (active)
same,AC50,[5],4.62 µM (active)
COc1cc(CC(=O)Nc2ccc(Cl)c(C(F)(F)F)c2)cc(OC)c1OC,EC50,cells [1],> 350 µM (not active)
same,EC50,cells [2],> 350 µM (not active)
Cc1ccc(Nc2cc(-n3cccn3)ncn2)c(C)c1,EC50,[6],0.12 µM (active)
same,EC50,H4,< 0.1 µM (active)
same,EC50,[7],0.619 µM (active)
COc1ccc(C2CC(c3ccccc3)=NN2c2ccc(Cl)c(C(=O)O)c2)cc1 (configuration not stated),IC50,Genome polyprotein,39.9 µM (active)
CCC1(c2ccc(Cl)cc2)N=C(S)N(c2ccc(C)cc2)N1 (configuration not stated),EC50,[6],19.1 µM (active)
same,EC50,H4,14.7 µM (inconclusive)
same,EC50,[7],11.2 µM (active)
COC(=O)c1ccc(CSc2nc3c(c(=O)n2-c2ccc(F)cc2)SCC3)o1,EC50,cells [1],> 350 µM (not active)
same,EC50,cells [2],> 350 µM (not active)
O=C1NC(=S)N(C2CC2)C(=O)/C1=C/NNC(=O)c1ccccc1,IC50,Nonstructural protein 1,12.7 µM (active)
COc1ccc(CC(NC(C)=O)C(=O)NC2CCN(C(=O)c3cccc(Cl)c3)CC2)cc1OC (configuration not stated),EC50,cells [1],> 350 µM (not active)
same,EC50,cells [2],> 350 µM (not active)
Cc1ccc(Cl)cc1N1CCN(CC(=O)NC2CCCc3ccccc32)CC1 (configuration not stated),AC50,[8],5.48 µM (active)
same,CC50,[9],> 40 µM (active)
CCc1nc(C)c(C(=O)N2CCCC(C(=O)Nc3cccc(-c4cccc(C)c4)c3)C2)o1 (configuration not stated),EC50,[6],8.19 µM (active)
same,EC50,H4,16.3 µM (active)
same,EC50,[7],7.7 µM (active)
COc1ccc2occ(C(=O)c3cccs3)c2c1,EC50,[6],6.67 µM (active)
same,EC50,H4,32.6 µM (active)
same,EC50,[7],13.3 µM (active)
Nc1ncc(N=Nc2cc(C(=O)O)ccc2Cl)s1,IC50,Genome polyprotein,73.6 µM (active)
same,IC50,Large T antigen,67.1 µM (active)
COc1cc(N=Nc2cccc(S(N)(=O)=O)c2)c2ccccc2c1N,AC50,[10],5.37 µM (active)
same,IC50,Nonstructural protein 1,14.2 µM (active)
same,EC50,Protein RecA,11.5 µM (active)
Cc1csc(NC(=O)CSc2ccc(-c3ccccn3)nn2)n1,IC50,Nonstructural protein 1,10.2 µM (active)
CSC1=NN=C(c2ccc(C(C)(C)C)cc2)NN1,EC50,[6],15.2 µM (active)
same,EC50,H4,16.9 µM (active)
same,EC50,[7],36.5 µM (active)
Cc1cccc(OCC(=O)Nc2ccc3c(c2)nc(CN2CCCCC2)n3C)c1,AC50,[11],20 µM (active)
CCc1nnc(NC(=O)c2cc(Cl)ccn2)s1,IC50,Nonstructural protein 1,11.1 µM (active)
CCC1CCCCN1Cc1c(O)ccc2c(=O)c(-c3ccccc3OC)coc12 (configuration not stated),EC50,cells [1],> 350 µM (not active)
same,EC50,cells [2],> 350 µM (not active)
C/C(=N\NC(=S)NCC(C)(C)C)c1cc(F)cc(F)c1O,EC50,Streptokinase A,0.501 µM (active)
same,EC50,Streptococcus,2.68 µM (active)
same,EC50,[12],1.32 µM (active)
same,CC50,[9],22.9 µM (active)
N#CCC(=O)N/N=C/c1ccc(SCC(=O)Nc2ccccc2)o1,EC50,cells [1],> 350 µM (not active)
same,EC50,cells [2],> 350 µM (not active)
CCOc1ccc(NC(=O)CC(NCc2ccccn2)C(=O)O)cc1 (configuration not stated),IC50,Nonstructural protein 1,1.28 µM (active)
O=C1OC(c2ccccc2)(c2cc(Br)c(O)c(Br)c2)c2ccccc21 (configuration not stated),IC50,Genome polyprotein,35.2 µM (active)
same,AC50,[13],4.1 µM (active)
Cn1nc(C(=O)NC2CCCCC2)c2c1-c1ccccc1SC2,EC50,[6],13.4 µM (active)
same,EC50,H4,12.2 µM (active)
same,EC50,[7],25.7 µM (active)
O=C(CSC1=NCCS1)N1CCc2ccccc21,EC50,[6],10.7 µM (active)
same,EC50,H4,15.4 µM (active)
same,EC50,[7],45.7 µM (active)
